Experimental data published in article PMC9329436, “Optimization of the 4-anilinoquin(az)oline scaffold as epidermal growth factor receptor (EGFR) inhibitors for chordoma utilizing a toxicology profiling assay platform” (Scientific Reports, 2022).

Test system: U-CH2 chordoma cell line
Experiment: Cell viability assay (alamarBlue, 72 h), U-CH2
Type: cell-based, human
Details: n = 4, 72 h
Experimental: (§1) Chordoma cell lines were cultured as described previously[10],[12],[33],[34]. Briefly, U-CH1 and U-CH2 cell lines were cultured in 4:1 IMDM:RPMI medium supplemented with 10% fetal bovine serum (FBS) and 1% penicillin/streptomycin in gel-coated flasks. […] CH22, UM-Chor1, U-CH12, and U-CH7 cell lines were cultured in RPMI medium supplemented with 10% FBS and 1% penicillin/streptomycin. The cell lines all undergo regular mycoplasma screening.
(§2) Cells were seeded in 384 well plates and were treated with test compound in quadruplicate 24 h after plating. Cell viability was assessed at 72 h using alamarBlue (ThermoFisher, USA). […] IC50 values were determined by four-parameter nonlinear regression analyses using GraphPad Prism™ version 8 software (San Diego, CA).

Compound | IC50
C#Cc1cccc(Nc2ncnc3ccc(OC)cc23)c1 [Compound 2] | 47 µM
C#Cc1cccc(Nc2ncnc3ccccc23)c1 [Compound 3] | 52 µM

Test system: HL60 cells
Experiment: AsedaSciences SYSTEMETRIC Cell Health Screen (flow cytometry toxicity profiling)
Details: HL60, 4 h, 5 nM–100 µM, probability 0–1, n = 2
Source text: To prioritize further optimization, in addition to cellular potency, we utilized the AsedaSciences® […]® Cell Health Screen. This live cell flow cytometry (FC) screen was developed to assess human safety risk for candidate pharmaceutical small molecules at the early hit-to-lead stage of development. The screen works by estimating the risk using a supervised machine learning (ML) classifier to assess a multiparametric cellular stress phenotype, produced by the test compound, relative to a training set of known compounds (Table S1). This screen has been designed for early pipeline risk estimation regardless of pharmaceutical class/disease type, so it uses HL60 as the reporter cell line.
The ML classifier was trained with 300 historically known compounds (on market or withdrawn drugs, research compounds, etc.), which were divided into two outcome classes based upon literature, clinical trials, and market histories where applicable. This external curation informed an outcome of “high-risk” or “low-risk”. All 300 compounds were also processed through the automated FC screen, populating each of the two classes with frequency distributions of empirical cell-based phenotypes.
To estimate human safety risk for an unknown compound, the ML classifier assesses the similarity of the test compound’s cell-based phenotype to the distributions of phenotypes in the two outcome classes. […] Phenotypes are derived from twelve FC detection parameters, including light scatter and a series of fluorescent physiological reporter dyes, that track cell stress-related endpoints.
To produce the Cell Health Index, the ML classifier uses all twelve FC parameters simultaneously in a multidimensional logistic regression model, so the CHI contains the most predictive power. In addition to the Cell Health Index, Table 4 also reports probability scores for eight cell stress-related endpoints. These scores are produced individually by passing information to the ML classifier relating to parameters that inform that endpoint. For example, to produce the cell morphology (CM) score, the ML classifier only uses the FC detection parameters for forward scatter (informing change in cell diameter) and side scatter (informing change in optical granularity of the cell) to inform the model. Together, these eight endpoints provide a “biological fingerprint”, allowing assessment of the degree to which SAR series members behave differently across endpoints.
In a 384-well platform, HL60 cells were exposed to a 10-step, 3 × dilution series of each test compound (5 nM–100 µM) for 4 h at 37 °C with 5% CO2. Each dilution series was screened in duplicate, occupying a total of 20 wells, allowing 16 test compounds to be assayed per plate. Each row contained one positive and one negative control well, for a total of 16 replicate positive/negative control pairs on each assay plate. Compound formatting, cell deposition, and dye application were performed robotically so that final assay conditions comprised 100,000 cells in a 40 µL volume. After the 4 h compound exposure, cells were immediately stained with a panel of fluorescent dyes that report physiological signatures of both mitochondrial dysfunction and gross cell stress. Fluorescence and forward/side-scatter data were collected using automated FC with no gating. FC data are processed by an automated algorithm for producing quality control measures and ML classification of compound phenotypes. • 2. HL60 cell culture production
HL60 cells were produced as suspension cultures in glass 850 cm^2 roller bottles with vented caps, at 1 RPM, 5% CO2, and 37 °C. […] Culture density was maintained at or below 1 × 10^6 cells/mL.

Compound | CC: Cell Cycle score | CM: Cell morphology score | CMI: Cell membrane integrity score | GSH: Glutathione score | MMP: Mitochondrial membrane depolarization score | NMI1: Nuclear membrane integrity 1 score | NMI2: Nuclear membrane integrity 2 score | ROS: Reactive superoxide species score
C#Cc1cccc(Nc2ncnc3ccc(OC)cc23)c1 [Compound 2] | 0.38 | 0.24 | 0.62 | 0.038 | 0.019 | 0.42 | 0.068 | 0.17
C#Cc1cccc(Nc2ncnc3ccccc23)c1 [Compound 3] | 0.86 | 0.96 | 0.99 | 0.98 | 1.00 | 0.53 | 0.76 | 0.98
CC(CN1c2ccccc2Sc2ccccc21)N(C)C (stereo not shown) [Promethazine, reference compound] | 0.46 | 1.00 | 0.98 | 0.96 | 0.97 | 0.84 | 0.94 | 0.98
CC(C)NCC(O)COc1cccc2ccccc12 (stereo not shown) [Propranolol, reference compound] | 0.24 | 0.060 | 0.20 | 0.11 | 0.010 | 0.69 | 0.23 | 0.18
NC(=O)c1ncn([C@@H]2O[C@H](CO)[C@@H](O)[C@H]2O)n1 [Ribavirin, reference compound] | 0.040 | 0.010 | 0.070 | 0.060 | 0.000 | 0.16 | 0.030 | 0.23
CN(CCOc1ccc(CC2SC(=O)NC2=O)cc1)c1ccccn1 (stereo not shown) [Rosiglitazone, reference compound] | 0.27 | 0.49 | 0.23 | 0.53 | 0.050 | 0.23 | 0.27 | 0.070
C=C(C)[C@H]1Cc2c(ccc3c2O[C@@H]2COc4cc(OC)c(OC)cc4[C@@H]2C3=O)O1 [Rotenone, reference compound] | 0.70 | 0.93 | 0.83 | 0.79 | 0.99 | 0.54 | 0.76 | 0.94
CCC(C)(C)C(=O)O[C@H]1C[C@@H](C)C=C2C=C[C@H](C)[C@H](CC[C@@H]3C[C@@H](O)CC(=O)O3)[C@H]21 [Simvastatin, reference compound] | 0.12 | 0.030 | 0.080 | 0.41 | 0.060 | 0.29 | 0.10 | 0.11
O=C(O)c1cc(/N=N/c2ccc(S(=O)(=O)Nc3ccccn3)cc2)ccc1O [Sulfasalazine, reference compound] | 0.10 | 0.010 | 0.060 | 0.030 | 0.31 | 0.14 | 0.63 | 0.090
CC/C(=C(\c1ccccc1)c1ccc(OCCN(C)C)cc1)c1ccccc1 [Tamoxifen, reference compound] | 0.98 | 1.00 | 1.00 | 1.00 | 1.00 | 1.00 | 0.99 | 1.00
Cc1cn([C@@H]2C[C@@H](O)[C@H](CO)O2)c(=O)[nH]c1=O [Telbivudine, reference compound] | 0.020 | 0.010 | 0.040 | 0.070 | 0.010 | 0.11 | 0.050 | 0.030
CC(C)(C)c1ccc(C(O)CCCN2CCC(C(O)(c3ccccc3)c3ccccc3)CC2)cc1 (stereo not shown) [Terfenadine, reference compound] | 0.98 | 1.00 | 1.00 | 1.00 | 1.00 |  |  | 1.00
COc1cc2c(Nc3ccc(Cl)c(Cl)c3F)ncnc2cc1OC[C@@H]1C[C@@H]2CN(C)C[C@@H]2C1 [Tesevatinib, reference compound] | 0.96 | 1.00 | 1.00 | 1.00 | 1.00 | 0.91 | 0.99 | 1.00
CSc1ccc2c(c1)N(CCC1CCCCN1C)c1ccccc1S2 (stereo not shown) [Thioridazine, reference compound] | 0.89 | 1.00 | 1.00 | 1.00 | 1.00 | 1.00 | 1.00 | 1.00
COc1ccc(/C=C/C(=O)Nc2ccccc2C(=O)O)cc1OC [Tranilast, reference compound] | 0.10 | 0.020 | 0.13 | 0.030 | 0.17 | 0.73 | 0.30 | 0.12
CC(c1cc2ccccc2s1)N(O)C(N)=O (stereo not shown) [Zileuton, reference compound] | 0.11 | 0.020 | 0.010 | 0.020 | 0.060 | 0.17 | 0.080 | 0.070

Same assay, conditions: HL60, 4 h, 5 nM–100 µM, probability (0–1) of high-risk class, n = 2

Compound | CHI: Cell Health Index
C#Cc1cccc(Nc2ncnc3ccc(OC)cc23)c1 [Compound 2] | 0.31
C#Cc1cccc(Nc2ncnc3ccccc23)c1 [Compound 3] | 0.74
CC(CN1c2ccccc2Sc2ccccc21)N(C)C (stereo not shown) [Promethazine, reference compound] | 0.71
NC(=O)c1ncn([C@@H]2O[C@H](CO)[C@@H](O)[C@H]2O)n1 [Ribavirin, reference compound] | 0.16
CN(CCOc1ccc(CC2SC(=O)NC2=O)cc1)c1ccccn1 (stereo not shown) [Rosiglitazone, reference compound] | 0.37
COc1cc2c(Nc3ccc(Cl)c(Cl)c3F)ncnc2cc1OC[C@@H]1C[C@@H]2CN(C)C[C@@H]2C1 [Tesevatinib, reference compound] | 0.92
CSc1ccc2c(c1)N(CCC1CCCCN1C)c1ccccc1S2 (stereo not shown) [Thioridazine, reference compound] | 0.85
COc1ccc(/C=C/C(=O)Nc2ccccc2C(=O)O)cc1OC [Tranilast, reference compound] | 0.32
CC(c1cc2ccccc2s1)N(O)C(N)=O (stereo not shown) [Zileuton, reference compound] | 0.19

Test system: U-CH1 chordoma cell line
Experiment: Cell viability assay (alamarBlue, 72 h), U-CH1
Type: cell-based, human
Details: n = 4, 72 h
Experimental: as §1, §2

Compound | IC50
C#Cc1cccc(Nc2ncnc3ccc(OC)cc23)c1 [Compound 2] | 1.4 µM
C#Cc1cccc(Nc2ncnc3ccccc23)c1 [Compound 3] | 35 µM
